{
  "source": "paper PMC4389225",
  "about": "“Triaminopyrimidine is a fast-killing and long-acting antimalarial clinical candidate” (Nature Communications, 2015)",
  "key": {"GPCR [1]": {"system": "GPCR", "assay": "Secondary pharmacology panel, target #8", "quoted_text": "(§3) An in vitro pharmacological profiling panel was specifically designed for the detection of potential high- risk clinical adverse drug reactions. […] For enzyme and kinase assays, the results were expressed as a percent inhibition of control-specific activity obtained in the presence of the test compound. The IC50 values (concentration causing a half-maximal inhibition of control-specific activity) and Hill coefficients (nH) were determined by nonlinear regression analysis of the inhibition/concentration–response curves using Hill equation curve fitting as described earlier[37].\n(§4) For assessment of activity against these targets, compounds were tested in an 8-point\n(§5) concentration response covering half-log units up to a top test concentration of 100 µM, and\n(§6) an IC50 or Ki determined using either radio ligand binding assays or enzyme activity assays."}, "[2]": {"system": "asexual blood stage of Pf", "assay": "Pf asexual blood stage potency (Pf IC50)", "type": "cell-based, Plasmodium falciparum", "conditions": "for IC50: Plasmodium falciparum", "text": "The TAPs series emerged from a high-throughput screen (HTS) of 500,000 compounds from the AstraZeneca corporate library against the asexual blood stage of Pf using a high-content image-based approach. The procedure for synthesis of compounds 1-6, 10, 11 using a scheme similar to Fig. 1 is provided in Supplementary Note 1. The initial hit provided multiple diversification points for a robust lead optimization campaign. […] Compounds with 2-pyridyl modification at the 2-amino position of pyrimidine core improved potency and solubility at the cost of potent activity against hERG and acetylcholine esterase (AChE; compounds 3-6; Table 1). […] The observed hERG and AChE selectivity improvement with 7 could be attributed to the polar nature of the pyrazole group and its role in reducing the pKa of the core pyrimidine ring. […] To assess the potential for cross-resistance, representative TAPs were screened against a panel of clinical isolates and in vitro-generated mutant strains displaying varying mechanisms of resistance to antimalarial agents currently in use and under development, respectively, (Supplementary Tables 1–3)."}, "GPCR [3]": {"system": "GPCR", "assay": "Secondary pharmacology panel, target #22", "quoted_text": "as §3, §4, §5, §6"}, "GPCR [4]": {"system": "GPCR", "assay": "Secondary pharmacology panel, target #26", "quoted_text": "as §3, §4, §5, §6"}, "Enzyme [5]": {"system": "Enzyme", "assay": "Secondary pharmacology panel, target #25", "quoted_text": "(§7) For enzyme and kinase assays, the results were expressed as a percent inhibition of control-specific activity obtained in the presence of the test compound. The IC50 values (concentration causing a half-maximal inhibition of control-specific activity) and Hill coefficients (nH) were determined by nonlinear regression analysis of the inhibition/concentration–response curves using Hill equation curve fitting as described earlier[37].\nas §4, §5, §6"}, "Transporter [6]": {"system": "Transporter", "assay": "Secondary pharmacology panel, target #7", "quoted_text": "as §3, §4, §5, §6"}, "GPCR [7]": {"system": "GPCR", "assay": "Secondary pharmacology panel, target #9", "quoted_text": "as §3, §4, §5, §6"}, "Enzyme [8]": {"system": "Enzyme", "assay": "Secondary pharmacology panel, target #11", "quoted_text": "as §7, §4, §5, §6"}, "Enzyme [9]": {"system": "Enzyme", "assay": "Secondary pharmacology panel, target #23", "quoted_text": "as §7, §4, §5, §6"}, "[10]": {"assay": "Plasma protein binding, human", "conditions": "for fraction unbound: human, plasma"}, "Enzyme [11]": {"system": "Enzyme", "assay": "Secondary pharmacology panel, target #24", "quoted_text": "as §7, §4, §5, §6"}, "Ion channel [12]": {"system": "Ion channel", "assay": "Secondary pharmacology panel, target #5", "quoted_text": "as §3, §4, §5, §6"}, "Transporter [13]": {"system": "Transporter", "assay": "Secondary pharmacology panel, target #14", "quoted_text": "as §3, §4, §5, §6"}, "GPCR [14]": {"system": "GPCR", "assay": "Secondary pharmacology panel, target #6", "quoted_text": "as §3, §4, §5, §6"}, "GPCR [15]": {"system": "GPCR", "assay": "Secondary pharmacology panel, target #10", "quoted_text": "as §3, §4, §5, §6"}, "α1A adrenoceptor": {"target": "T1, α1A adrenoceptor (Homo sapiens, UniProt P35348)", "T1 construct": "purchased CEREP, France (external assay service) 2338", "T1 sequence (P35348 1-466)": "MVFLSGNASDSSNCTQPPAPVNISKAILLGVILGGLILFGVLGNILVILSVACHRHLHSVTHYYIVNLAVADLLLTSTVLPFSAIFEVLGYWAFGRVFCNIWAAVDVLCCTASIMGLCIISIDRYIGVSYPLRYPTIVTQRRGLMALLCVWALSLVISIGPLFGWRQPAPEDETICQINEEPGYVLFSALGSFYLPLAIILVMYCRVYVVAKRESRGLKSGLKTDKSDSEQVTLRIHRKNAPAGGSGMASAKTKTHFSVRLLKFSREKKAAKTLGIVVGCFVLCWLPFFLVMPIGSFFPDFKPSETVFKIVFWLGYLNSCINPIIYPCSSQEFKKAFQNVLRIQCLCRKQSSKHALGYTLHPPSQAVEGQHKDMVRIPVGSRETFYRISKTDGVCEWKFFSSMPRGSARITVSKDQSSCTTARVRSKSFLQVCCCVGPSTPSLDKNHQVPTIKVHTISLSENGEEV", "assay": "α1A adrenoceptor radioligand binding (CEREP)", "description": "(§1) An in vitro pharmacological profiling panel was specifically designed for the detection of potential high- risk clinical adverse drug reactions. The panel comprised of 26 diverse targets (6 enzymes, 2 transporters, 9 G-protein-coupled receptors (GPCRs), 5 ion channels along with hERG, M2, alpha1A and AchE) and was conduced externally by CEREP, France […]. […] Detailed methodology for in vitro pharmacological profiling assays provided by CEREP can be found at http://www.cerep.fr, with specific reference to the AChE (cat. no. 0363), Muscarinic M1 receptor (cat. no. 0091) and Adrenergic α1A receptor (cat. no. 2338) assays. For enzyme and kinase assays, the results were expressed as a percent inhibition of control-specific activity obtained in the presence of the test compound. The IC50 values (concentration causing a half-maximal inhibition of control-specific activity) and Hill coefficients (nH) were determined by nonlinear regression analysis of the inhibition/concentration–response curves using Hill equation curve fitting as described earlier.\n(§2) For radioligand binding assays, the results are expressed as % inhibition of control-specific binding obtained in the presence of the test compounds. The IC50 values (concentration causing a half-maximal inhibition of control-specific binding) and Hill coefficients (nH) were determined by nonlinear regression analysis of the competition curves generated with mean replicate values using Hill equation curve fitting. The inhibition constants (Ki) were subsequently calculated by applying the Cheng Prusoff equation[38]."}, "Muscarinic M2 receptor": {"target": "T2, Muscarinic M2 receptor (Homo sapiens, UniProt P08172)", "T2 construct": "purchased CEREP, France (external assay service)", "T2 sequence (P08172 1-466)": "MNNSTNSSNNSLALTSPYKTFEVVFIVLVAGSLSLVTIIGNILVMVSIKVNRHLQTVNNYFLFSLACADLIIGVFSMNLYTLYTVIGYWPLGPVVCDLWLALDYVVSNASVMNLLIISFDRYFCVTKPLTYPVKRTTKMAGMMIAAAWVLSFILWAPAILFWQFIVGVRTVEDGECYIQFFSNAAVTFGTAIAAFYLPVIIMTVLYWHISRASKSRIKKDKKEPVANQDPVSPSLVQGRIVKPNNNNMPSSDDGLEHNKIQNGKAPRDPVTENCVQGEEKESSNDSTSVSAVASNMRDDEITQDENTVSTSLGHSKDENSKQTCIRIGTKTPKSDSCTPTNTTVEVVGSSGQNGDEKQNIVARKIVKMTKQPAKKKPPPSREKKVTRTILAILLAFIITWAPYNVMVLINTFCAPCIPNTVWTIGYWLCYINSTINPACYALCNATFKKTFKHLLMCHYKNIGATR", "assay": "Muscarinic M2 receptor radioligand binding (CEREP)", "description": "as §1, §2"}, "Ion channel [16]": {"system": "Ion channel", "assay": "Secondary pharmacology panel, target #2", "quoted_text": "as §3, §4, §5, §6"}, "GPCR 9": {"system": "GPCR 9", "assay": "Secondary pharmacology panel, target #20", "quoted_text": "as §7\ntargets (8 enzymes, 5 ion channels, 10 GPCRs and 2 transporters) and hERG.\nas §4, §5, §6"}},
  "data": [
    {"molecule": "Cc1cc(Nc2ncc(N3CCN(C)CC3)c(N3CCCC3)n2)ccn1", "note": "[compound 2]", "values": [
      {"measurement": "Binding Ki / Enzyme IC50", "setting": "GPCR [1]", "result": 4.735, "unit": "µM"},
      {"measurement": "IC50", "setting": "[2]", "result": 0.6, "unit": "µM"},
      {"measurement": "Binding Ki / Enzyme IC50", "setting": "GPCR [3]", "result": "> 100", "unit": "µM"},
      {"measurement": "Binding Ki / Enzyme IC50", "setting": "GPCR [4]", "result": "> 100", "unit": "µM"},
      {"measurement": "Binding Ki / Enzyme IC50", "setting": "Enzyme [5]", "result": "> 100", "unit": "µM"},
      {"measurement": "Binding Ki / Enzyme IC50", "setting": "Transporter [6]", "result": 17.1, "unit": "µM"},
      {"measurement": "Binding Ki / Enzyme IC50", "setting": "GPCR [7]", "result": "> 100", "unit": "µM"},
      {"measurement": "Binding Ki / Enzyme IC50", "setting": "Enzyme [8]", "result": "> 100", "unit": "µM"},
      {"measurement": "Binding Ki / Enzyme IC50", "setting": "Enzyme [9]", "result": "> 100", "unit": "µM"},
      {"measurement": "fraction unbound", "setting": "[10]", "result": 0.402},
      {"measurement": "Binding Ki / Enzyme IC50", "setting": "Enzyme [11]", "result": "> 100", "unit": "µM"},
      {"measurement": "Binding Ki / Enzyme IC50", "setting": "Ion channel [12]", "result": 3.64, "unit": "µM"},
      {"measurement": "Binding Ki / Enzyme IC50", "setting": "Transporter [13]", "result": 31.45, "unit": "µM"},
      {"measurement": "Binding Ki / Enzyme IC50", "setting": "GPCR [14]", "result": 2.695, "unit": "µM"},
      {"measurement": "Binding Ki / Enzyme IC50", "setting": "GPCR [15]", "result": 8.42, "unit": "µM"},
      {"measurement": "IC50", "setting": "α1A adrenoceptor", "result": 3.1, "unit": "µM"},
      {"measurement": "Ki", "setting": "α1A adrenoceptor", "result": 1.46, "unit": "µM"},
      {"measurement": "Selectivity ratio for α1A (IC50 / blood Cmin at ED90 in the Pf/SCID model)", "setting": "α1A adrenoceptor", "result": "< 1"},
      {"measurement": "IC50", "setting": "Muscarinic M2 receptor", "result": 1.6, "unit": "µM"},
      {"measurement": "Ki", "setting": "Muscarinic M2 receptor", "result": 1.1, "unit": "µM"},
      {"measurement": "Selectivity ratio for M2 (IC50 / blood Cmin at ED90 in the Pf/SCID model)", "setting": "Muscarinic M2 receptor", "result": "< 1"},
      {"measurement": "Binding Ki / Enzyme IC50", "setting": "Ion channel [16]", "result": 0.933, "unit": "µM"},
      {"measurement": "Binding Ki / Enzyme IC50", "setting": "GPCR 9", "result": "> 100", "unit": "µM"}
    ]},
    {"molecule": "Cc1nc(Nc2ncc(N3CCN(C)[C@H](C)C3)c(Nc3cc(C)n(C)n3)n2)cc(C2CC2)c1F", "note": "[compound 12, (R)-N2-(4-cyclopropyl-5-fluoro-6-methylpyridin-2-yl)-N4-(1,5-dimethyl-1H-pyrazol-3-yl)-5-(3,4-dimethylpiperazin-1-yl)pyrimidine-2,4-diamine]", "values": [
      {"measurement": "Binding Ki / Enzyme IC50", "setting": "GPCR [1]", "result": "> 100", "unit": "µM"},
      {"measurement": "IC50", "setting": "[2]", "result": 0.009, "unit": "µM"},
      {"measurement": "improvement in Pf potency", "setting": "[2]; compound 12 versus compound 2", "result": "> 60", "unit": "fold"},
      {"measurement": "Binding Ki / Enzyme IC50", "setting": "GPCR [3]", "result": "> 100", "unit": "µM"},
      {"measurement": "Binding Ki / Enzyme IC50", "setting": "GPCR [4]", "result": "> 100", "unit": "µM"},
      {"measurement": "Binding Ki / Enzyme IC50", "setting": "Enzyme [5]", "result": "> 100", "unit": "µM"},
      {"measurement": "Binding Ki / Enzyme IC50", "setting": "Transporter [6]", "result": 3.85, "unit": "µM"},
      {"measurement": "Binding Ki / Enzyme IC50", "setting": "GPCR [7]", "result": 2.21, "unit": "µM"},
      {"measurement": "Binding Ki / Enzyme IC50", "setting": "Enzyme [8]", "result": 4.29, "unit": "µM"},
      {"measurement": "Binding Ki / Enzyme IC50", "setting": "Enzyme [9]", "result": "> 100", "unit": "µM"},
      {"measurement": "Plasma protein binding (% free)", "setting": "[10]; Human", "result": 2.5, "unit": "% free"},
      {"measurement": "Protein binding (human free)", "setting": "[10]; Human", "result": 2.5, "unit": "%"},
      {"measurement": "reduction in free fraction", "setting": "[10]; compound 12 versus compound 2", "result": 10, "unit": "fold"},
      {"measurement": "fraction unbound", "setting": "[10]", "result": 0.025},
      {"measurement": "Binding Ki / Enzyme IC50", "setting": "Enzyme [11]", "result": "> 100", "unit": "µM"},
      {"measurement": "Binding Ki / Enzyme IC50", "setting": "Ion channel [12]", "result": 8.58, "unit": "µM"},
      {"measurement": "Binding Ki / Enzyme IC50", "setting": "Transporter [13]", "result": 10.1, "unit": "µM"},
      {"measurement": "Binding Ki / Enzyme IC50", "setting": "GPCR [14]", "result": 7.82, "unit": "µM"},
      {"measurement": "Binding Ki / Enzyme IC50", "setting": "GPCR [15]", "result": "> 100", "unit": "µM"},
      {"measurement": "IC50", "setting": "α1A adrenoceptor", "result": 1.2, "unit": "µM"},
      {"measurement": "Ki", "setting": "α1A adrenoceptor", "result": 0.604, "unit": "µM"},
      {"measurement": "IC50", "setting": "Muscarinic M2 receptor", "result": 2, "unit": "µM"},
      {"measurement": "Ki", "setting": "Muscarinic M2 receptor", "result": 1.05, "unit": "µM"},
      {"measurement": "Binding Ki / Enzyme IC50", "setting": "Ion channel [16]", "result": 2.62, "unit": "µM"},
      {"measurement": "Binding Ki / Enzyme IC50", "setting": "GPCR 9", "result": "> 100", "unit": "µM"}
    ]}
  ]
}
